Assay results from patent US8895079B2, “Combinations of botanical extracts for promoting cardiovascular health” (National Research Council of Canada, priority 2005, dated 2014).
Marks after values point to notes of the source that are not given here.

Tested on: hamsters fed an atherogenic control diet
Test: Example 1: four week hamster study, plasma cholesterol and triglyceride levels
Format: in vivo, Male Golden Syrian hamsters
Experimental: A controlled, four week animal study was performed to compare and contrast the effects of three interventional strategies on blood cholesterol and triglyceride levels. Four randomized groups of 15 male Golden Syrian hamsters were fed isocaloric diets as follows: • Control a semi-synthetic casein-corn starch-sucrose diet that contained 0.15% (w/w) cholesterol and 5% (w/w) fat • BBRCI control diet containing 100 mg/kg·d of BBRCI • PS control diet containing 1% (w/w) PS • BBRCI+PS control diet containing 100 mg/kg·d BBRCI and 1% (w/w) PS BBRCI and PS were introduced into the diet by blending. The primary endpoint at the end of the study was to determine the effects of each intervention on circulating blood lipids including total cholesterol (T-C), high-density-lipoprotein cholesterol (HDL-C), nonHDL-C (which is indicative of LDL-C levels) and triglyceride (TG) profiles. All lipids were measured by the standard enzymatic method. Male Golden Syrian Hamsters were purchased from Charles River Co. housed individually in cages for two weeks prior to the commencement of the study. During this adjustment period, animals were fed with regular rodent chow diet with free access to both food and water. A total of 60 hamsters were weighed and randomly assigned to one of four groups of 15 animals each. Animals are subjected to a temperature-controlled environment with a 12:12 h light/dark cycle. Each group was fed with one of the four isocaloric experimental diets for a 4 week period. […] During the course of the experiment, animals were weighed weekly and food consumption was determined on a daily basis over the course of the experiment. At the conclusion of the study all animals were anaesthetized with isoflurane and killed by decapitation. Blood samples were collected into tubes containing ethylenediaminetetraacetic acid (EDTA). Red blood cells and plasma were separated and stored at −80° C. until further analysis. Plasma was analyzed for total cholesterol, HDL-C and TG concentrations, for which results are reported below. NonHDL-C was calculated by subtracting HDL-C from total cholesterol. FIGS. 1-3 and Table 2 represent the effects of BBRCI and PS alone or in combination on blood cholesterol and triglyceride levels. Values are means±SD, n=15. Data were analyzed by one-way ANOVA followed by Tukey test if significance was detected. A significant difference was indicated by a p<0.05.

[1] = Example 1, 4 weeks, BBRCI 100 mg/kg·d and/or PS 1% (w/w)
[2] = Example 1, BBRCI 100 mg/kg·d, PS 1% (w/w)
[3] = plasma, 0.15% cholesterol diet, 4 weeks, BBRCI 100 mg/kg·d and/or PS 1% (w/w), means±SD, n=15

COc1ccc2cc3[n+](cc2c1OC)CCc1cc2c(cc1-3)OCO2 [BBRCI, Berberine chloride]
HDL-C % difference from Control [1]: −16.2% | HDL-C/nonHDL-C % difference from Control [1]: 19% | T-C % difference from Control [1]: −21.9% | TG % difference from Control [1]: −3.9% | nonHDL-C % difference from Control [1]: −28.2% | reduction of T-C relative to control [2]: 22% | reduction of nonHDL-C relative to control [2]: 28% | reduction of plasma TG levels (Example 1, relative to control, BBRCI 100 mg/kg·d, PS 1% (w/w)): 4% | T-C Concentration (plasma, 0.15% cholesterol diet, 4 weeks, BBRCI 100 mg/kg·d and/or PS 1% (w/w) in diet, means±SD, n=15): 169 ± 20^b mg/dl | HDL-C Concentration [3]: 100 ± 17^b mg/dl | TG Concentration [3]: 326 ± 111^a mg/dl | nonHDL-C Concentration (plasma, calculated by subtracting HDL-C from total cholesterol, 0.15% cholesterol diet, 4 weeks, BBRCI 100 mg/kg·d and/or PS 1% (w/w), n=15): 66 ± 14^b mg/dl | HDL-C/nonHDL-C (ratio, plasma, 0.15% cholesterol diet, 4 weeks, BBRCI 100 mg/kg·d and/or PS 1% (w/w), n=15): 1.60 ± 0.58^b
